Test results: patent US20090149395A1, “NOVEL MACROCYCLIC POLYENE LACTAMS” (priority 2007, published 2009)
≈ marks a conversion by molar mass, not a printed value. Where two headings read alike, the source gives them in different places.

Experiments:
bacterial cells = experiment: Solid agar growth inhibition zone assay; format: cell-based; conditions: MHB agar, 5 μl spot, 16 hr to 24 hr incubation; strain not named
Method: This can be achieved in different assay format; bacteria growing on solid agar media or bacteria growing in broth such as for Example 5 and 6 (Minimal Inhibition Concentration).
For solid agar format, bacterial cells are first grown in a suitable media such as Mueller Hinton broth (MHB) until exponential phase (OD600<1.0). The cells are diluted back to OD600=0.02 in MHB, and evenly applied as a thin layer on the surface of a plate of solid growth media, such as MHB agar (about 0.1 ml onto a surface area of 100 cm^2). After the surface is dried, a 5 μl aliquot of a 2-fold serial dilution of NOVO4 (in 50% DMSO) is spotted onto the surface of the agar plate. After 16 hr to 24 hr of incubation, depending on the bacterial strain of interest, the diameter of zones of growth inhibition is measured.

B. subtilis 1A1 = experiment: MIC broth dilution; format: cell-based; conditions: Bacillus subtilis, 1A1, B. subtilis 1A1
S. pneumoniae BAA225 = experiment: MIC broth dilution; format: cell-based; conditions: Streptococcus pneumoniae
MRSA NRS1 = experiment: MIC broth dilution; format: cell-based, Methicillin-resistant Staphylococcus aureus; conditions: Staphylococcus aureus
E. faecium MG1953 = experiment: MIC broth dilution; format: cell-based; conditions: Enterococcus faecium
B. anthracis sterne = experiment: microbe, parasite or virus in culture; format: cell-based; conditions: Bacillus anthracis
MRSA and VRE = experiment: Effect of serum on NOVO4 MIC; format: cell-based; conditions: MIC without serum compared to media with 10% calf bovine serum
Method: These studies follow the procedure for determining the MIC described above in Example 5. Briefly, two-fold serial dilution of the NOVO4 compound are added to the test cells of interest, MRSA and VRE, and the lowest concentration of compound that inhibits growth after a period of incubation is considered to be the MIC. To determine the effect of serum on the activity of NOVO4, MIC in the absence of serum is compared to MIC in media supplemented with 10% calf bovine serum (ATCC 30-2030).

E. faecalis (VRE BM4147) = experiment: MIC broth dilution; format: cell-based; conditions: Enterococcus faecalis
E. faecium E4So1 = experiment: MIC broth dilution; format: cell-based; conditions: Enterococcus faecium
MSSA (ATCC 13709) = experiment: MIC broth dilution; format: cell-based, Staphylococcus aureus
E. faecium (VRE JM89) = experiment: MIC broth dilution; format: cell-based; conditions: Enterococcus faecium
MRSA NRS108 = experiment: MIC broth dilution; format: cell-based, Methicillin-resistant Staphylococcus aureus; conditions: Staphylococcus aureus
[1] = tested on: NIH3T3 mouse embryonic fibroblasts; experiment: Mammalian cytotoxicity assay (CellTiter 96 AQueous One); format: cell-based; conditions: NIH3T3 cells, 24 hr, highest tested 16 μg/ml
Method: Mammalian cytotoxicity assays were performed using NIH3T3 mouse embryonic fibroblasts (ATCC CRL-1658), and cytotoxicity was measured using the CellTiter 96® AQueous One Solution Cell Proliferation Assay (Promega, Madison, Wis., Cat: G3582), according to the manufacturer's recommendations.
100× working stocks of 2-fold serial dilution of NOVO4 in DMSO were created in a 96 well format. The highest concentration of the 100× concentration (working stock) was prepared by adding […] of the stock solution of NOVO4 (10 mg/ml in DMSO) for every 0.68 μl of DMSO to well A02. 0.5 μl of this 100× stock was added for every 0.5 μl of DMSO in well A03 to create a total of 7 two-fold serial dilution series, from 1600 μg/ml to 25 μg/ml (from highest in well A02 to A08,). A DMSO control was also included (wells in column A01, and A12). […]
The plate was visually inspected under a dissecting microscope, and the absorbance at 490 nm was read using a Spectramax Plus Spectrophotometer, with wells A12, and B12 reserved as blanks. The signal of compound alone (well A11) was verified not to contribute to the absorbance at this wavelength. Next, 20 μl of the CellTiter 96® AQueous One Solution Cell Proliferation Assay (Promega, Madison, Wis., Cat: G3582) was added to each well, and the plate was read after 3 hr of incubation. […]

human red blood cells = format: cell-based
Method: The effect of NOVO4 on the hemolysis of human red blood cells was also tested. A total of 10 ml of expired packed red blood cells from the blood bank was gently added to 80 ml of PBS (Phosphate buffered saline), and pelleted at 1000 g for 5 minutes at 4° C. The upper phase and buffy layer (white blood cells) were removed. The cells are repeatedly washed by gentle mixing with PBS, and centrifugation until the upper phase is clear. In the last wash, 40 ml of 1×PBS with 0.05% BSA was added to half of the red blood cells while 40 ml of 1×PBS without BSA was added to the other half. The upper phase of the last wash was removed to leave a total volume of about 10 ml. The concentration of the red blood cells was measured by using the spectrophometer at 600 nm. An aliquot of the cells are diluted to a final density OD600 of 24 in 1×PBS, and another to a final density OD600 of 24 in 1×PBS with 0.05% BSA.
The compound NOVO4 is two-fold serially diluted (similar to that described above for mammalian NIH3T3 cytotoxicity assay) as 100× concentration in DMSO, ranging from 0.4 μg/ml to 400 μg/ml. […] After thorough mixing, the A450 was read using a Spectramax Plus Spectrophotometer, using wells with only 1×PBS as blanks. […]

Compound: CC1\C=C/C=C\C=C/C=C\C=C/C(OC2OCC(O)C(O)C2N)C(C)(O)/C=C/C=C\C=C/C=C/C(=O)NC1 (stereo not shown) [NOVO4]
- minimal concentration in which a 5 μL aliquot spotted onto a lawn of growing bacteria results in an observable zone of no growth (bacterial cells): 0.67 µg/mL
- MIC (B. subtilis 1A1; MHB): 0.06 to 1 µg/mL (≈ 0.114 to 1.91 µM)
- MIC (B. subtilis 1A1; MHB + 0.05% BSA): 0.125 µg/mL
- MIC (B. subtilis 1A1; MHB + 10% FCS): 0.06 to 0.5 µg/mL
- MIC (S. pneumoniae BAA225; MHB): 1 to 2 µg/mL (≈ 1.91 to 3.81 µM)
- MIC (S. pneumoniae BAA225; MHB + 0.05% BSA): 1 to 2 µg/mL
- MIC (S. pneumoniae BAA225; MHB + 10% FCS): 2 to 4 µg/mL
- MIC (MRSA NRS1; MHB): 2 to 4 µg/mL (≈ 3.81 to 7.62 µM)
- MIC (MRSA NRS1; MHB + 0.05% BSA): 0.5 µg/mL
- MIC (MRSA NRS1; MHB + 10% FCS): 1 µg/mL
- MIC (E. faecium MG1953; MHB): 2 to 4 µg/mL (≈ 3.81 to 7.62 µM)
- MIC (E. faecium MG1953; MHB + 0.05% BSA): 1 to 2 µg/mL
- MIC (E. faecium MG1953; MHB + 10% FCS): 2 µg/mL
- MIC (B. anthracis sterne; MHB): 0.25 to 0.5 µg/mL (≈ 0.477 to 0.953 µM)
- MIC (B. anthracis sterne; MHB + 0.05% BSA): 0.125 to 0.5 µg/mL
- MIC (B. anthracis sterne; MHB + 10% FCS): 0.25 to 0.5 µg/mL
- effect of calf bovine serum on the MIC (MRSA and VRE): no significant effect
- MIC (E. faecalis (VRE BM4147); MHB): 2 to 4 µg/mL (≈ 3.81 to 7.62 µM)
- MIC (E. faecalis (VRE BM4147); MHB + 0.05% BSA): 1 to 2 µg/mL
- MIC (E. faecalis (VRE BM4147); MHB + 10% FCS): 2 µg/mL
- MIC (E. faecium E4So1; MHB): 2 µg/mL (≈ 3.81 µM)
- MIC (E. faecium E4So1; MHB + 0.05% BSA): 1 µg/mL
- MIC (E. faecium E4So1; MHB + 10% FCS): 1 µg/mL
- MIC (MSSA (ATCC 13709); MHB + 0.05% BSA): 0.25 µg/mL
- MIC (MSSA (ATCC 13709); Staphylococcus aureus, MHB + 10% FCS): 0.25 to 0.5 µg/mL
- MIC (MSSA (ATCC 13709); Staphylococcus aureus, MHB, read-out: MIC): 0.25 µg/mL (≈ 0.477 µM)
- MIC (E. faecium (VRE JM89); MHB): 4 µg/mL (≈ 7.62 µM)
- MIC (E. faecium (VRE JM89); MHB + 0.05% BSA): 2 µg/mL
- MIC (E. faecium (VRE JM89); MHB + 10% FCS): 2 µg/mL
- solubility (physchem; aqueous with cosolvent or surfactant or cyclodextrin): 300 µg/mL (≈ 572 µM)
- solubility (physchem; organic solvent or mixture): > 5000 µg/mL
- MIC (MRSA NRS108; MHB): 1 to 8 µg/mL (≈ 1.91 to 15.2 µM)
- MIC (MRSA NRS108; MHB + 0.05% BSA): 2 µg/mL
- MIC (MRSA NRS108; MHB + 10% FCS): 0.5 to 2 µg/mL
- LD50 [1]: > 16 µg/mL

Compound: Triton X100
- A450 (hemoglobin released) (human red blood cells): 0.41
- lysis of red blood cells (human red blood cells): complete lysis
